{
  "source": "patent US20110230476A1",
  "about": "“PI3 KINASE INHIBITORS AND USES THEREOF” (AVILA THERAPEUTICS, INC., priority 2009, published 2011)",
  "target": "PI3Kα (Homo sapiens, UniProt P42336)",
  "sequence (P42336 whole entry)": "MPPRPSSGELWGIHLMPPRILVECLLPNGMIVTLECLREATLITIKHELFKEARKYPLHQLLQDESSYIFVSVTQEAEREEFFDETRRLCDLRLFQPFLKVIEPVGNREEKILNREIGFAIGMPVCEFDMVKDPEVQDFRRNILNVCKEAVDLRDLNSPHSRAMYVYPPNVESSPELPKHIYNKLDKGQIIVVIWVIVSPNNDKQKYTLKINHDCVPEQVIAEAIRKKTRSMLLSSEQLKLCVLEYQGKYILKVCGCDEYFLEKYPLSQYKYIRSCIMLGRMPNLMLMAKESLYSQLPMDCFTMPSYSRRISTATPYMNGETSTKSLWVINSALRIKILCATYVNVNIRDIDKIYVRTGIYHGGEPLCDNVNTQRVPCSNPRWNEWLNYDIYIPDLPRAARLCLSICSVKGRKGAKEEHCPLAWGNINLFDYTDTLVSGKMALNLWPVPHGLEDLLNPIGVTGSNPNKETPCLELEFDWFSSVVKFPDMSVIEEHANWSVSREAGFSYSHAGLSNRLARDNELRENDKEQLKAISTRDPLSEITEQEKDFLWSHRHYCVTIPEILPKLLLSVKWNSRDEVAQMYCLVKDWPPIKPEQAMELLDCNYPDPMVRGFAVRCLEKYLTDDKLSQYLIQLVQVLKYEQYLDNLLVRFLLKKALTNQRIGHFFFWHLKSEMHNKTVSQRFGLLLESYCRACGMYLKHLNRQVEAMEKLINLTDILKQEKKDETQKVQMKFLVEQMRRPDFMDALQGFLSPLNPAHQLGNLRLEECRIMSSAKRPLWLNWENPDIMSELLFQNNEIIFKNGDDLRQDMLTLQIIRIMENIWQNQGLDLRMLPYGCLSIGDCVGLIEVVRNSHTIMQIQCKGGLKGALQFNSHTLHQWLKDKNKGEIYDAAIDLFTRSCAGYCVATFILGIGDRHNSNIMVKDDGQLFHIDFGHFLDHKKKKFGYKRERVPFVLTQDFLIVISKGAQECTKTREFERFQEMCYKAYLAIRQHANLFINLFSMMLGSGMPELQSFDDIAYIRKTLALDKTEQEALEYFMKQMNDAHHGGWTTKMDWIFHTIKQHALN",
  "sequence (P27986 whole entry partner)": "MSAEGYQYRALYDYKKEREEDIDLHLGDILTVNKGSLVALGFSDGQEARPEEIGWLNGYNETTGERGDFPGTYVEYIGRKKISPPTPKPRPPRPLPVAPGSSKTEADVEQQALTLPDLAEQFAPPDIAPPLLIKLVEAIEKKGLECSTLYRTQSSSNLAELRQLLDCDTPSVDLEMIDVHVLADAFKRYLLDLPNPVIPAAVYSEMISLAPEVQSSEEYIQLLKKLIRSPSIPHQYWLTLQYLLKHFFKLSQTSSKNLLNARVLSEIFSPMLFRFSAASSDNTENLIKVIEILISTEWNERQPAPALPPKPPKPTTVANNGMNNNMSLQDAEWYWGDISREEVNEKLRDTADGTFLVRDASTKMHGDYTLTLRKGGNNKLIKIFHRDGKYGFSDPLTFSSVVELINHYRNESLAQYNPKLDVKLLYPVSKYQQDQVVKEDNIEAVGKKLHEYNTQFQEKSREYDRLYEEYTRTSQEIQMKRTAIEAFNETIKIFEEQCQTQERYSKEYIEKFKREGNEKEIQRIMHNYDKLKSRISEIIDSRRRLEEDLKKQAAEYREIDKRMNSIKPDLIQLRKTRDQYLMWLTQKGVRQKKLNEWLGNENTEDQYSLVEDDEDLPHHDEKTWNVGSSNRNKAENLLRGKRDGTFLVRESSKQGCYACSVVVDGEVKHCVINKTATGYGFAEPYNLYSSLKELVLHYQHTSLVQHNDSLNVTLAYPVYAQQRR",
  "test": "Trypsin digest and MS-MS analysis of compound-treated PI3Kα",
  "format": "binding",
  "set-up": "purchased Millipore 14-602",
  "details": "in-gel trypsin digest",
  "protocol": "(§1) The PI3Kα protein band was then excised and subjected to an in-gel trypsin digest by reducing the protein with DTT, alkylating the thiols with iodoacetamide, and then incubating the protein gel band with trypsin overnight in a 37° C. water bath. The digest was then stopped by addition of trifluoroacetic acid, and peptides were removed from gel band by sonicating with increasing amounts of acetonitrile (0%, 30%, & 60%). Peptides were then purified using C18 ziptips, spotted on the MALDI target plate with α-cyano-4-hydroxycinnamic acid as the desorption matrix (10 mg/ml in 0.1% TFA:Acetonitrile 50:50), and analyzed in reflectron mode.\nas §1, with “trifluoro acetic” for “trifluoroacetic”",
  "note": "Entries after “also recorded” stand apart in the source; their conditions may differ.",
  "data": [
    {"smiles": "CC(C)=CC(=O)CCC(=O)N1CCN(Cc2cc3nc(-c4cccc5[nH]ncc45)nc(N4CCOCC4)c3s2)CC1", "note": "[II-a-3, 1-(4-((2-(1H-indazol-4-yl)-4-morpholinothieno[3,2-d]pyrimidin-6-yl)methyl)piperazin-1-yl)-6-methylhept-5-ene-1,4-dione]", "values": [
      {"measurement": "site on PI3Kα that is covalently modified", "value": "Cys-862; also recorded: peptide ^853NSHTIMQIQCK^863"}
    ]}
  ]
}
